Laboratory results reported in PubChem BioAssay (NCI).
Where “and” joins values, the source holds several entries; their conditions need not be identical. Equal entries are not always repeated.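 Cultured in 96-well plates, cells were exposed to test compound for 48 hours across five concentrations. Here, GI50 denotes the concentration required for 50% inhibition of growth. TGI: total growth inhibition.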

Experiments:
Assay in all cases: NCI-60 cell line screen, 48 h
A549 NSCLC = test system: A549 NSCLC
BT-549 breast = test system: BT-549 breast
K-562 leukemia = test system: K-562 leukemia
MDA-MB-231 breast = test system: MDA-MB-231 breast
NCI-H460 lung = test system: NCI-H460 lung
NCI/ADR-RES ovarian = test system: NCI/ADR-RES ovarian
RXF 393 renal = test system: RXF 393 renal
U251 CNS = test system: U251 CNS
DMS 114 small cell lung = test system: DMS 114 small cell lung

SMILES | GI50 (A549 NSCLC) | TGI (A549 NSCLC) | GI50 (BT-549 breast) | TGI (BT-549 breast) | GI50 (K-562 leukemia) | TGI (K-562 leukemia) | GI50 (MDA-MB-231 breast) | TGI (MDA-MB-231 breast) | GI50 (NCI-H460 lung) | TGI (NCI-H460 lung) [µM] | GI50 (NCI/ADR-RES ovarian) | TGI (NCI/ADR-RES ovarian) | GI50 (RXF 393 renal) | TGI (RXF 393 renal) | GI50 (U251 CNS) | TGI (U251 CNS) | TGI (DMS 114 small cell lung) [µM]
CN1C[C@@H]2Cn3c(c(C4=C(c5cn(C)c6ccccc56)C(=O)NC4=O)c4ccccc43)C[C@H]2C1 | 4.4 µM and 3.51 µM | 10.5 µM and 8.75 µM | 4.51 µM and 4.36 µM | 8.4 µM and 8.59 µM | 4.9 µM and 2.37 µM | 10.4 µM and 6.88 µM | 4.37 µM and 4.1 µM | 8.85 µM and 9.22 µM | 4.61 µM and 4.35 µM | 8.9 | 6.46 µM and 8.53 µM | 16.8 µM and 25 µM | 3.53 µM and 3.17 µM | 7.19 µM and 6.68 µM | 3.59 µM and 2.83 µM | 7.27 µM and 6.37 µM | –
NS(=O)(=O)c1ccc(-n2ncc3c(Nc4ccccc4)ncnc32)cc1 | 14.3 µM | > 100 µM | 30.3 µM | 92.8 µM | 4.44 µM | 37.7 µM | 15 µM | 87.1 µM | 14.9 µM | > 100 | 19.5 µM | 55.4 µM | 29.6 µM | > 100 µM | 26.9 µM | > 100 µM | –
CCC1(NC(=O)c2cc(F)c(F)c(F)c2F)C(=O)NC(=O)N(C(C)C)C1=O (configuration not stated) | 50.7 µM | > 100 µM | 20 µM | 44.1 µM | 3.54 µM | 19.3 µM | 19.3 µM | 48.7 µM | 49.7 µM | > 100 | 31.8 µM | 88.3 µM | 25.3 µM | 59.1 µM | 25.6 µM | 91.3 µM | –
CCOC(=O)c1ccc(N2C(=O)Cc3ccccc3C2=O)cc1 | – | > 100 µM | – | – | – | > 100 µM | – | – | – | – | – | – | – | > 100 µM | – | > 100 µM | > 100
Cc1cc(C)c(S(=O)(=O)N(CCc2cccc(Br)c2)Cc2ccc(-c3cccc(S(C)(=O)=O)c3)cc2)c(C)c1 | > 100 µM | > 100 µM | > 100 µM | > 100 µM | > 100 µM | > 100 µM | > 100 µM | > 100 µM | > 100 µM | > 100 | > 100 µM | > 100 µM | > 100 µM | > 100 µM | > 100 µM | > 100 µM | –
CN(C)CCSCCO | – | > 100 µM | – | > 100 µM | – | > 100 µM | – | > 100 µM | – | > 100 | – | > 100 µM | – | > 100 µM | – | > 100 µM | –
N#Cc1nc2c(S(=O)(=O)c3ccccc3)c(N)n(Cc3ccc(Cl)cc3)c2nc1C#N | 12.1 µM | 41.3 µM | 10.8 µM | 41.7 µM | > 50 µM | > 50 µM | 5.08 µM | 14.9 µM | 10.9 µM | > 50 | 0.424 µM | 10.3 µM | 2.45 µM | 13.9 µM | 8.09 µM | 18.3 µM | –
CS(=O)(=O)N(CCC#N)c1ccc(C=O)cc1 | – | > 100 µM | – | – | – | > 100 µM | – | – | – | > 100 | – | – | – | – | – | > 100 µM | > 100
COc1c(Cl)ccc2c(-c3nc4cc(Cl)c(F)cc4s3)cc(=O)oc12 | 17.9 µM | > 100 µM | 7.58 µM | 37.5 µM | 5.42 µM | > 100 µM | 2.84 µM | 11.2 µM | 33.2 µM | > 100 | 8.76 µM | > 100 µM | 5.83 µM | 17.7 µM | 7.57 µM | 44.7 µM | –
NCCCN1CCN(CCCNc2nc3ccccc3c3[nH]c4ccccc4c23)CC1 | 0.323 µM | 2.37 µM | 2.12 µM | 5.72 µM | 0.0715 µM | 43.1 µM | 0.456 µM | 1.72 µM | 0.32 µM | 1.42 | 3.1 µM | 22 µM | 0.429 µM | 1.31 µM | 0.373 µM | 4.54 µM | –
C=C(CNC(=O)c1ccccc1)c1ccc(C(=O)Nc2ccccc2N)cc1 | 9.52 µM | > 100 µM | 19.6 µM | > 100 µM | 1.26 µM | > 100 µM | 5.56 µM | 45.1 µM | 8.02 µM | > 100 | 2.35 µM | > 100 µM | 3.08 µM | > 100 µM | 5.43 µM | 74.5 µM | –
C=C1C(OC/C=C/COC2O[C@@H]3O[C@@]4(C)CC[C@H]5[C@H](C)CC[C@@H](C2=C)[C@@]35OO4)O[C@@H]2O[C@@]3(C)CC[C@H]4[C@H](C)CC[C@@H]1[C@@]24OO3 (some centres not stated) | 7.48 µM | > 60.5 µM | 3.07 µM | 41.1 µM | 0.0949 µM | > 67.3 µM | 11.4 µM | 51.3 µM | 5.18 µM | 27.2 | 0.203 µM | 18.1 µM | 0.166 µM | 5.93 µM | 12.1 µM | 25.7 µM | –
Cc1ccc2nc(-c3ccc(N)c4ccccc34)[nH]c2c1 | 0.781 µM | > 46.2 µM | 0.399 µM | 21.1 µM | 0.763 µM | 39.7 µM | 0.0899 µM | 13.3 µM | 3.97 µM | – | 0.0835 µM | 3.53 µM | 0.265 µM | 14.7 µM | 0.0619 µM | 22.5 µM | –
N#C/C(=C\c1c(-c2ccccc2)[nH]c2ccccc12)C(=O)c1ccccc1 | 7.55 µM | > 100 µM | 3 µM | > 100 µM | > 100 µM | > 100 µM | 13.2 µM | > 100 µM | 4.52 µM | > 100 | 3.11 µM | > 100 µM | 9.61 µM | > 100 µM | 4.73 µM | 27.4 µM | –
Clc1cc(-c2ccccc2)nc2ccccc12 | – | > 100 µM | – | 80.4 µM | – | > 100 µM | – | > 100 µM | – | > 100 | – | > 100 µM | – | > 100 µM | – | > 100 µM | –
Clc1ccc(CNc2nccc(-c3cnn4ncccc34)n2)cc1 | 7.66 µM | > 25 µM | 6.4 µM | 14.7 µM | 10.6 µM | > 25 µM | 8.5 µM | > 25 µM | 7.92 µM | > 25 | 6.75 µM | > 25 µM | 4.88 µM | 10.2 µM | 6.73 µM | > 25 µM | –
